Test results: patent publication EP0863136B1, “Derivatives of azetidine and pyrrolidine” (Akzo Nobel N.V., priority 1997, dated 1998)

Experiments:
[1] = target: T1, 5HT2C receptors (Rattus norvegicus, UniProt P08909); experiment: Penile erection test; assay type: in vivo; details: rats
T1 construct: from tissue; host or cells: whole animal (rat), in vivo
T1 sequence (P08909 33-460): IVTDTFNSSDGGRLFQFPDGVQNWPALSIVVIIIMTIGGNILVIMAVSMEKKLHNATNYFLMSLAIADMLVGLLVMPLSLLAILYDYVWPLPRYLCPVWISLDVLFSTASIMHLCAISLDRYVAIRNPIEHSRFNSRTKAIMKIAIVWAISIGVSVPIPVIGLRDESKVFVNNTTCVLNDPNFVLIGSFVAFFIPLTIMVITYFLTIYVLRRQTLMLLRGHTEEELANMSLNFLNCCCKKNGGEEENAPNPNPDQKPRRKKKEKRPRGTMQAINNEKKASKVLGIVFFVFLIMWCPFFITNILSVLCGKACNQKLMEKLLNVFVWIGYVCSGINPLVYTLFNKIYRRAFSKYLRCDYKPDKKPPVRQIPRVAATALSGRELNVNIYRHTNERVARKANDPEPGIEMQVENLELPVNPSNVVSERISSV
Source text: This test, carried out according to the protocol of Berendsen et al ["In volvement of 5-HT1C receptors in drug-induced penile erections in rats" - Psychopharmacology 101: 57-61(1990)] enables the potential in vivo activity at 5HT2C receptors to be assessed.

[2] = DRL-72 test; assay type: in vivo; details: rats, operant performance
Source text: This test, carried out according to the protocol of Andrews et al ["Effects of imipramine and mirtazapine on operant performance in rats" - Drug Development Research 32: 58-66 (1994)], gives an indication of potential antidepressant-like activity.

[3] = target: T2, human 5-HT2C (Homo sapiens, UniProt P28335); experiment: Binding test, displacement of [3H]-mesulergine, cloned human receptors expressed in 3T3 cells; details: cloned human receptor in 3T3 cells; [3H]-mesulergine displacement; read-out: Binding pKi 5HT2C (converted)
T2 construct: expressed in transfected cells; host or cells: 3T3 cells
T2 sequence (P28335 33-458): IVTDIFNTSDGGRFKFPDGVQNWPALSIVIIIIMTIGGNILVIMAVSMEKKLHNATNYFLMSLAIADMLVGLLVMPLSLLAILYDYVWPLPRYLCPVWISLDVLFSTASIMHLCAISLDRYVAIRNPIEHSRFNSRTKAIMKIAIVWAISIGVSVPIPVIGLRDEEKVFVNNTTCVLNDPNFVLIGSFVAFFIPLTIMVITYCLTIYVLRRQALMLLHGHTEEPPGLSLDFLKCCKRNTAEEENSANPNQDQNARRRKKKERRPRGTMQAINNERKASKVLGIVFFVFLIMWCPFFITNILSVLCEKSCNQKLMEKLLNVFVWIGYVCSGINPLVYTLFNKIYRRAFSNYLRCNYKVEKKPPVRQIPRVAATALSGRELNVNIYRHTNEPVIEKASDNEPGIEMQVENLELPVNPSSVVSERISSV
Method: (§1) The tests are carried out using cloned human receptors expressed in 3T3 cells according to the protocols described in Stam et al "Genomic organization, coding sequence and functional expression of human 5-HT2 and 5-HT1A receptor genes" - European Journal of Pharmacology - Molecular Pharmacology Section 227: 153-162 (1993) and Stam et al "Genomic organisation and functional expression of the gene encoding the human serotonin 5-HT2C receptor" - European Journal of Pharmacology - Molecular Pharmacology Section 269: 339-348 (1994).

[4] = target: T3, human 5-HT2A receptors (Homo sapiens, UniProt P28223); experiment: Binding test, displacement of [3H]-ketanserin, cloned human receptors expressed in 3T3 cells; details: cloned human receptor in 3T3 cells; [3H]-ketanserin displacement; read-out: Binding pKi 5HT2A (converted)
T3 construct: expressed in transfected cells; host or cells: 3T3 cells
T3 sequence (P28223 whole entry): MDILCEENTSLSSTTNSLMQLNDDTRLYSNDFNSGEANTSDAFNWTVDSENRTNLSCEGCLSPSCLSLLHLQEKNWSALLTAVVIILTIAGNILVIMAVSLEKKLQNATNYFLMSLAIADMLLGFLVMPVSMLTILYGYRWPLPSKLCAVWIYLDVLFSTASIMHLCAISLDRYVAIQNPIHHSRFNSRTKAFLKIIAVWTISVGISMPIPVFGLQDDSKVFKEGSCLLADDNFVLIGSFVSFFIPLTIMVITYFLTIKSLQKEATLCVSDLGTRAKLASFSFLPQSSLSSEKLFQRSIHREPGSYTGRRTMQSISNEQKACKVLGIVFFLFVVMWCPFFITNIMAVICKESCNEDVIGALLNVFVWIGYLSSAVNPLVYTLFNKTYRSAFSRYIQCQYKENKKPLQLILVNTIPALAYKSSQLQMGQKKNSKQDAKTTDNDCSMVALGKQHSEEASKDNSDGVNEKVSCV
Method: as §1

SMILES | Erection of the penis (MED, mg.kg-1) [1] | Increase in pellets earned in DRL-72 (MED, mg.kg-1) [2] | Ki [3] | Ki [4]
COc1ccc2c(c1OC1CNC1)CCC2.Cl [Compound 5d, 3-[(2,3-Dihydro-5-methoxy-1H-inden-4-yl)oxy]-azetidine hydrochloride] | 1 mg/kg | 10 mg/kg | 0.0316 µM | 0.398 µM
COc1ccc2c(c1O[C@H]1CCNC1)CCC2.Cl [Compound 9a, (S)-(+)-3-[(2,3-Dihydro-5-methoxy-1H-inden-4-yl)oxy]-pyrrolidine hydrochloride] | 0.46 mg/kg | 3 mg/kg | 0.01 µM | 
COc1ccc2c(c1OC1CCNC1)CCC2.Cl (racemic) [Compound 10b, (rac)-3-[(2,3-Dihydro-5-methoxy-1H-inden-4-yl)oxy] pyrrolidine hydrochloride] | 1 mg/kg | 10 mg/kg | 0.0251 µM | 
